Assay results published in US20250134869A1, “Pyrrolo[2,3-d]pyrimidinyl, Pyrrolo[2,3-b]pyrazinyl and Pyrrolo[2,3-d]pyridinyl Acryla-mides” (Pfizer Inc, priority 2021, published 2025).
Where two headings read alike, the source gives them in different places.

Molecular target: JAK3 enzyme (Homo sapiens (Human), UniProt P52333)
Assay: JAK Caliper Enzyme Assay at 4 μM or 1 mM ATP
Assay type: biochemical
[1] = read-out: JAK3 (4 μM ATP) IC50, 4 μM ATP
[2] = read-out: JAK3 (1 mM ATP) IC50, 1 mM ATP

JAK3 enzyme, sequence (P52333 whole entry, species assumed): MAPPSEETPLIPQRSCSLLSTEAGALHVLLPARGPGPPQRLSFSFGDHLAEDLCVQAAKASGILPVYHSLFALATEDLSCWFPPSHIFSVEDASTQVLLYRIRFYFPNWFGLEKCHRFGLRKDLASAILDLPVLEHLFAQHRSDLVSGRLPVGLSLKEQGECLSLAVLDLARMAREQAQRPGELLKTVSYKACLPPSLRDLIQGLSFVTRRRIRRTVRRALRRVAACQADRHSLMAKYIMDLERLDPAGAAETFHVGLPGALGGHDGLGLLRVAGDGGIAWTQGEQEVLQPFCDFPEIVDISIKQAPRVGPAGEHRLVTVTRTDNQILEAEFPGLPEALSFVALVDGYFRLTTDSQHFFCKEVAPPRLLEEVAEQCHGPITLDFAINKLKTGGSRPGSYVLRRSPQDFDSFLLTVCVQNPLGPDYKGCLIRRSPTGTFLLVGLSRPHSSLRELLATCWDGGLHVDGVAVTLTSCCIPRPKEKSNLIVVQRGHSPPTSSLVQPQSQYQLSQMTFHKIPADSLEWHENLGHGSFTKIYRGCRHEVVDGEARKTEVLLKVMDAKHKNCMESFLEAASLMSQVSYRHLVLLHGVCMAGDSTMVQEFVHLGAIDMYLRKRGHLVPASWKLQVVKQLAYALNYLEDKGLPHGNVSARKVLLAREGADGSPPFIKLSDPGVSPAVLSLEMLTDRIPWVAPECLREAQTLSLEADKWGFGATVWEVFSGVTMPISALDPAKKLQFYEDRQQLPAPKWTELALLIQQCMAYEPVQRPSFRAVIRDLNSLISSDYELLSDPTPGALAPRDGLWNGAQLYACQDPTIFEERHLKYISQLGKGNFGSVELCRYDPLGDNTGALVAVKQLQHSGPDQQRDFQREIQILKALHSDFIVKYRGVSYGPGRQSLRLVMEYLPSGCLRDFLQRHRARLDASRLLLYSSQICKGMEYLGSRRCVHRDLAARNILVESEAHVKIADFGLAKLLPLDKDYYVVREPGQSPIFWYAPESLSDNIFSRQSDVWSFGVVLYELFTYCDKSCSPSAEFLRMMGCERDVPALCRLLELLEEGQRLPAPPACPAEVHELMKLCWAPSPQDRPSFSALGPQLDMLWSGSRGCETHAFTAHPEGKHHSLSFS

Structure (SMILES)	IC50 [1]	IC50 [2]
C=CC(=O)N1CCC(Nc2cnc3[nH]cc(C(=O)NCC4(O)CCC(F)(F)CC4)c3n2)CC1 [Example 252b, 2-[(1-acryloylpiperidin-4-yl)amino]-N-[(4,4-difluoro-1-hydroxycyclohexyl)methyl]-5H-pyrrolo[2,3-b]pyrazine-7-carboxamide]	0.5 nM	40.6 nM
C=CC(=O)N1CCC(Nc2cnc3[nH]cc(C(=O)NCC(C)CC(F)(F)F)c3n2)CC1 (stereo not drawn) [Example 253, 2-[(1-acryloylpiperidin-4-yl)amino]-N-(4,4,4-trifluoro-2-methylbutyl)-5H-pyrrolo[2,3-b]pyrazine-7-carboxamide]	0.2 nM	6.9 nM
C=CC(=O)N1CCC(Nc2cnc3[nH]cc(C(=O)N[C@@H]4CC[C@H](F)C4)c3n2)CC1 [Example 255, 2-[(1-acryloylpiperidin-4-yl)amino]-N-[(1R,3S)-3-fluorocyclopentyl]-5H-pyrrolo[2,3-b]pyrazine-7-carboxamide]	0.3 nM	9.7 nM
C=CC(=O)N1CCC(Nc2cnc3[nH]cc(C(=O)NC4CCCCC4(F)F)c3n2)CC1 (stereo not drawn) [Example 256, 2-[(1-acryloylpiperidin-4-yl)amino]-N-(2,2-difluorocyclohexyl)-5H-pyrrolo[2,3-b]pyrazine-7-carboxamide]	0.2 nM	7.9 nM
C=CC(=O)N1CCC(Nc2cnc3[nH]cc(C(=O)NC4CCC(F)(F)C4)c3n2)CC1 (stereo not drawn) [Example 259, 2-[(1-acryloylpiperidin-4-yl)amino]-N-(3,3-difluorocyclopentyl)-5H-pyrrolo[2,3-b]pyrazine-7-carboxamide]	0.2 nM	11.1 nM
C=CC(=O)N1CCC(Nc2cnc3[nH]cc(C(=O)NCCC#N)c3n2)CC1 [Example 261, 2-[(1-acryloylpiperidin-4-yl)amino]-N-(2-cyanoethyl)-5H-pyrrolo[2,3-b]pyrazine-7-carboxamide]	0.2 nM	7.4 nM
C=CC(=O)N1CCC(Nc2cnc3[nH]cc(C(=O)N[C@H](CC)CC#N)c3n2)CC1 [Example 263, 2-[(1-acryloylpiperidin-4-yl)amino]-N-[(2R)-1-cyanobutan-2-yl]-5H-pyrrolo[2,3-b]pyrazine-7-carboxamide]	0.2 nM	8.7 nM
C=CC(=O)N1CCC(Nc2cnc3[nH]cc(C(=O)NC(C)(C)C)c3n2)CC1 [Example 266, 2-[(1-acryloylpiperidin-4-yl)amino]-N-tert-butyl-5H-pyrrolo[2,3-b]pyrazine-7-carboxamide]	0.3 nM	13.6 nM
C=CC(=O)N1CCC(Nc2cnc3[nH]cc(C(=O)N[C@@H](C)CCC)c3n2)CC1 [Example 267, 2-[(1-acryloylpiperidin-4-yl)amino]-N-[(2S)-pentan-2-yl]-5H-pyrrolo[2,3-b]pyrazine-7-carboxamide]	0.3 nM	9 nM
C=CC(=O)N1CCC(Nc2cnc3[nH]cc(C(=O)N[C@H](C)COC)c3n2)CC1 [Example 268, 2-[(1-acryloylpiperidin-4-yl)amino]-N-[(2R)-1-methoxypropan-2-yl]-5H-pyrrolo[2,3-b]pyrazine-7-carboxamide]	0.3 nM	7.9 nM
C=CC(=O)N1CCC(Nc2cnc3[nH]cc(C(=O)NCCCC)c3n2)CC1 [Example 269, 2-[(1-acryloylpiperidin-4-yl)amino]-N-butyl-5H-pyrrolo[2,3-b]pyrazine-7-carboxamide]	0.2 nM	7.3 nM
C=CC(=O)N1CCC(Nc2cnc3[nH]cc(C(=O)NCC4CCCC4)c3n2)CC1 [Example 270, 2-[(1-acryloylpiperidin-4-yl)amino]-N-(cyclopentylmethyl)-5H-pyrrolo[2,3-b]pyrazine-7-carboxamide]	< 0.1 nM	8.6 nM
C=CC(=O)N1CCC(Nc2cnc3[nH]cc(C(=O)NCC(C)(C)C)c3n2)CC1 [Example 271, 2-[(1-acryloylpiperidin-4-yl)amino]-N-(2,2-dimethylpropyl)-5H-pyrrolo[2,3-b]pyrazine-7-carboxamide]	0.4 nM	14.9 nM
C=CC(=O)N1CCC(Nc2cnc3[nH]cc(C(=O)NCC(C)C)c3n2)CC1 [Example 272, 2-[(1-acryloylpiperidin-4-yl)amino]-N-(2-methylpropyl)-5H-pyrrolo[2,3-b]pyrazine-7-carboxamide]	0.2 nM	8.8 nM
C=CC(=O)N1CCC(Nc2cnc3[nH]cc(C(=O)NCC(F)(F)F)c3n2)CC1 [Example 273, 2-[(1-acryloylpiperidin-4-yl)amino]-N-(2,2,2-trifluoroethyl)-5H-pyrrolo[2,3-b]pyrazine-7-carboxamide]	0.4 nM	11.4 nM
C=CC(=O)N1CCC(Nc2cnc3[nH]cc(C(=O)N[C@H](C)CCC)c3n2)CC1 [Example 274, 2-[(1-acryloylpiperidin-4-yl)amino]-N-[(2R)-pentan-2-yl]-5H-pyrrolo[2,3-b]pyrazine-7-carboxamide]	0.2 nM	8.2 nM
C=CC(=O)N1CCC(Nc2cnc3[nH]cc(C(=O)NCCOC)c3n2)CC1 [Example 275, 2-[(1-acryloylpiperidin-4-yl)amino]-N-(2-methoxyethyl)-5H-pyrrolo[2,3-b]pyrazine-7-carboxamide]	0.4 nM	13.1 nM
C=CC(=O)N1CCC(Nc2cnc3[nH]cc(C(=O)NC(C)(C)CC)c3n2)CC1 [Example 276, 2-[(1-acryloylpiperidin-4-yl)amino]-N-(2-methylbutan-2-yl)-5H-pyrrolo[2,3-b]pyrazine-7-carboxamide]	< 0.3 nM	11.1 nM
C=CC(=O)N1CCC(Nc2cnc3[nH]cc(C(=O)N[C@@H](C)COC)c3n2)CC1 [Example 277, 2-[(1-acryloylpiperidin-4-yl)amino]-N-[(2S)-1-methoxypropan-2-yl]-5H-pyrrolo[2,3-b]pyrazine-7-carboxamide]	0.3 nM	6.6 nM
C=CC(=O)N1CCC(Nc2cnc3[nH]cc(C(=O)NC4CCCCC4)c3n2)CC1 [Example 278, 2-[(1-acryloylpiperidin-4-yl)amino]-N-cyclohexyl-5H-pyrrolo[2,3-b]pyrazine-7-carboxamide]	0.2 nM	6.3 nM
C=CC(=O)N1CCC(Nc2cnc3[nH]cc(C(=O)N(C)C(C)C)c3n2)CC1 [Example 279, 2-[(1-acryloylpiperidin-4-yl)amino]-N-methyl-N-(propan-2-yl)-5H-pyrrolo[2,3-b]pyrazine-7-carboxamide]	9.7 nM	592 nM
C=CC(=O)N1CCC(Nc2cnc3[nH]cc(C(=O)NC4CCC4)c3n2)CC1 [Example 280, 2-[(1-acryloylpiperidin-4-yl)amino]-N-cyclobutyl-5H-pyrrolo[2,3-b]pyrazine-7-carboxamide]	0.2 nM	4 nM
C=CC(=O)N1CCC(Nc2cnc3[nH]cc(C(=O)NC45CC(C4)C5)c3n2)CC1 [Example 281, 2-[(1-acryloylpiperidin-4-yl)amino]-N-(bicyclo[1.1.1]pent-1-yl)-5H-pyrrolo[2,3-b]pyrazine-7-carboxamide]	0.4 nM	5.2 nM

Continued, values first:

IC50 [1]	IC50 [2]	Structure (SMILES)
0.2 nM	12.9 nM	C=CC(=O)N1CCC(Nc2cnc3[nH]cc(C(=O)NCC(C)(F)F)c3n2)CC1 [Example 282, 2-[(1-acryloylpiperidin-4-yl)amino]-N-(2,2-difluoropropyl)-5H-pyrrolo[2,3-b]pyrazine-7-carboxamide]
0.3 nM	7.6 nM	C=CC(=O)N1CCC(Nc2cnc3[nH]cc(C(=O)NC4CCCC4)c3n2)CC1 [Example 283, 2-[(1-acryloylpiperidin-4-yl)amino]-N-cyclopentyl-5H-pyrrolo[2,3-b]pyrazine-7-carboxamide]
1.9 nM	176 nM	C=CC(=O)N1CCC(Nc2cnc3[nH]cc(C(=O)N4CCC4)c3n2)CC1 [Example 284, 1-(4-{[7-(azetidin-1-ylcarbonyl)-5H-pyrrolo[2,3-b]pyrazin-2-yl]amino}piperidin-1-yl)prop-2-en-1-one]
0.3 nM	8.5 nM	C=CC(=O)N1CCC(Nc2cnc3[nH]cc(C(=O)N[C@@H](C)CC)c3n2)CC1 [Example 285, 2-[(1-acryloylpiperidin-4-yl)amino]-N-[(2S)-butan-2-yl]-5H-pyrrolo[2,3-b]pyrazine-7-carboxamide]
15.9 nM	814 nM	C=CC(=O)N1CCC(Nc2cnc3[nH]cc(C(=O)N(C)C4CC4)c3n2)CC1 [Example 286, 2-[(1-acryloylpiperidin-4-yl)amino]-N-cyclopropyl-N-methyl-5H-pyrrolo[2,3-b]pyrazine-7-carboxamide]
4.2 nM	346 nM	C=CC(=O)N1CCC(Nc2cnc3[nH]cc(C(=O)N4CCCC4)c3n2)CC1 [Example 287, 1-(4-{[7-(pyrrolidin-1-ylcarbonyl)-5H-pyrrolo[2,3-b]pyrazin-2-yl]amino}piperidin-1-yl)prop-2-en-1-one]
0.2 nM	7.8 nM	C=CC(=O)N1CCC(Nc2cnc3[nH]cc(C(=O)NC(C)C4CC4)c3n2)CC1 (stereo not drawn) [Example 288, 2-[(1-acryloylpiperidin-4-yl)amino]-N-(1-cyclopropylethyl)-5H-pyrrolo[2,3-b]pyrazine-7-carboxamide]
0.3 nM	7.1 nM	C=CC(=O)N1CCC(Nc2cnc3[nH]cc(C(=O)N[C@H](C)CC)c3n2)CC1 [Example 289, 2-[(1-acryloylpiperidin-4-yl)amino]-N-[(2R)-butan-2-yl]-5H-pyrrolo[2,3-b]pyrazine-7-carboxamide]
0.2 nM	9.2 nM	C=CC(=O)N1CC[C@@H](Nc2cnc3[nH]cc(C(=O)NC(C)C)c3n2)[C@H](F)C1 [Example 291, 2-{[(3R,4R)-1-acryloyl-3-fluoropiperidin-4-yl]amino}-N-(propan-2-yl)-5H-pyrrolo[2,3-b]pyrazine-7-carboxamide]
0.6 nM	107 nM	C=CC(=O)N1CCN(c2cnc3[nH]cc(C(=O)NC(C)C)c3n2)CC1(C)C [Example 293, 2-(4-acryloyl-3,3-dimethylpiperazin-1-yl)-N-(propan-2-yl)-5H-pyrrolo[2,3-b]pyrazine-7-carboxamide]
